Reference: US8575142B2, “Agent for improving insulin resistance” (Morinaga Milk Industry Co., Ltd., priority 2005, dated 2013)
Where “and” joins values, the source holds several entries; their conditions need not be identical. Identical values can stand only once.

What was measured:
Format in all cases: in vivo
[1] = system: AKR mice to which insulin resistance was induced by feeding with a high-fat diet; experiment: Insulin tolerance test in AKR mice with high-fat-diet-induced insulin resistance; settings: 45th day of oral administration, 25 μg/kg once a day; 4 hours fasted; 0.75 U/kg human insulin intraperitoneally; up to 60 minutes; compared with negative sample
Method: The present example was performed by using AKR mice to which insulin resistance was induced by feeding with a high-fat diet, to confirm an enhancing effect of the agent for improving insulin resistance of the present invention on insulin sensitivity by performing an insulin tolerance test.
In Example 3, the same test samples and negative sample as those prepared in Examples 1 and 2 were used.
After that, the mice were divided into groups of 8 mice each. Each of the groups of mice was orally administered with 1 ml per 40 g of body weight (25 μg/kg of body weight) of a test sample or the negative sample once a day using a sonde. […] The insulin tolerance test in the present example was performed in such a manner that: the mice were fasted for 4 hours, and were then intraperitoneally administered with 0.75 U/kg of body weight of a human insulin (Eli Lily and Company); and changes with time in blood glucose level were measured from the initiation of the administration of insulin to after 60 minutes later.

TNF-α = TNF-α production by epididymal fat tissues collected from treated insulin-resistant AKR mice (ELISA); settings: for TNF-α: culture supernatant of epididymal fat tissue after 1 hour culture, 60th day of oral administration, 25 μg/kg once a day; for Effect on production of TNF-α as compared with negative sample group: fat tissues, 60th day, 25 μg/kg oral once a day, Tukey-Kramer's test
Method: (§1) The present example was performed by using AKR mice to which insulin resistance was induced by feeding with a high-fat diet, to evaluate the effects of the agent for amelioration insulin resistance of the present invention on production of TNF-α and MCP-1 from respective cells of fat tissues.
(§2) In Example 2, the same test samples and negative sample as those prepared in Example 1 were used.
(§3) After that, the mice were divided into groups of 8 mice each. Each of the groups of mice was orally administered with 1 ml per 40 g of body weight (25 μg/kg of body weight) of a test sample or the negative sample once a day using a sonde. […] After 1 hour of the culture, culture supernatants were collected, and concentrations of TNF-α and MCP-1 in the culture supernatants were measured by ELISA (Biosource).

MCP-1 = MCP-1 production by epididymal fat tissues collected from treated insulin-resistant AKR mice (ELISA); settings: for MCP-1: culture supernatant of epididymal fat tissue after 1 hour culture, 60th day of oral administration, 25 μg/kg once a day; for Effect on production of MCP-1 as compared with negative sample group: fat tissues, 60th day, 25 μg/kg oral once a day, Tukey-Kramer's test
Method: as §1, §2, §3

[2] = system: AKR mice to which insulin resistance was induced by feeding with a high-fat diet; experiment: Level of free fatty acid in serum of AKR mice with high-fat-diet-induced insulin resistance; settings: 60th day of oral administration; for Free fatty acid: mouse serum, under fasting, 25 μg/kg of body weight once a day; for Test sample/negative sample (free fatty acid level in serum): relative to negative sample group, 25 μg/kg once a day
Method: Compound 3 (4-methylcholest-7-en-3-ol), Compound 4 (4-methylergost-7-en-3-ol), and Compound 5 (4-methylstigmast-7-en-3-ol) which were produced in Preparation Example 1 were each dissolved in DMSO and adjusted with distilled water to each have a concentration of 1 μg/ml, to thereby prepare Test Samples 1, 2, and 3. In this case, DMSO was adjusted to have a final concentration of 0.2%.
After that, the mice were divided into groups of 8 mice each. Each of the groups of mice were orally administered with 1 ml per 40 g of body weight (25 μg/kg of body weight) of a test sample or the negative sample once a day using a sonde.

| Compound | Change in blood glucose level after administration of insulin (FIG. 1) [1] | TNF-α (TNF-α) | Effect on production of TNF-α as compared with negative sample group (TNF-α) | MCP-1 (MCP-1) | Effect on production of MCP-1 as compared with negative sample group (MCP-1) | Free fatty acid [2] | Test sample/negative sample (free fatty acid level in serum) [2] |
| --- | --- | --- | --- | --- | --- | --- | --- |
| CCC(CCC(C)C1CCC2C3=CCC4C(C)C(O)CCC4(C)C3CCC21C)C(C)C (stereo not drawn) [Test Sample 3, 4-methylstigmast-7-en-3-ol] | rapid reduction in blood glucose levels | 29.80 ± 3.82 pg/mL | significant inhibitory effects | 87.80 ± 9.24 pg/mL | significant inhibitory effects | 0.90 ± 0.15 mEp/l | 60.8% |
| CC(C)C(C)CCC(C)C1CCC2C3=CCC4C(C)C(O)CCC4(C)C3CCC21C (stereo not drawn) [Test Sample 2, 4-methylergost-7-en-3-ol] | rapid reduction in blood glucose levels | 32.71 ± 1.70 pg/mL | significant inhibitory effects | 95.56 ± 10.56 pg/mL | significant inhibitory effects | 1.21 ± 0.22 mEp/l | 81.6% |
| CC(C)CCCC(C)C1CCC2C3=CCC4C(C)C(O)CCC4(C)C3CCC21C (stereo not drawn) [Test Sample 1, 4-methylcholest-7-en-3-ol] | rapid reduction in blood glucose levels | 33.73 ± 1.68 pg/mL | significant inhibitory effects | 100.86 ± 8.31 pg/mL | significant inhibitory effects | 1.35 ± 0.23 mEp/l | 86.4% and 84.5% |
